{"source": "patent US10202604B2", "about": "“Methods of using microRNA-141” (Stemirna Therapeutics Co., Ltd., priority 2016, dated 2019)", "key": {"[1]": {"tested_on": "RhoA", "assay": "Rho family GTPase activity assay (G-LISA)", "type": "cell-based, human", "conditions": "Du145 cells, Lenti-141 MOI 10, 48 h", "description": "(§1) Du145 cells transfected with NC or miR-141 oligos at the two doses and time intervals indicated were used in Western blotting. Indicated below are relative expression levels (normalized to respective GAPDH and compared to NC) of each protein determined by densitometric scanning of the individual bands. […] Bars, mean±SD. *P<0.05; **P<0.01. […] Du145 cells were co-transfected with NC or miR-141 oligos (30 nM) in combination with pcDNA3.1 (control) vector or pcDNA-RAC1 or pcDNA-CDC42 expression vector. After 48 h, cells were harvested for invasion assays. […] Du145 cells were infected with Lenti-141 or control lentivirus (MOI 10, 48 h) and then harvested to measure the Rho GTPase activities. Bars, mean±SD. *P<0.05. […] Du145 cells were transfected with the antisense oligos to NC or miR-141 (anti-141; 30 nM) and then used in invasion assays (FIG. 5E). In FIG. 5F and FIG. 5G Du145 cells were transfected with 10 nM of scramble siRNA control (siCon) or siRNAs targeting RAC1 (FIG. 5F) or CDC42 (FIG. 5G), either alone or in combination of anti-141 (30 nM). 48 h later, cells were harvested for invasion assays. Bars, mean±SD. *P<0.05; **P<0.01.\n(§2) The activity of Rho family of small GTPases including RhoA, RAC1 and CDC42 were detected using G-LISA small G-protein activation assays per the manufacturer's instructions (Cytoskeleton, Inc., Denver, Colo.; catalog# BK135)."}, "[2]": {"tested_on": "CDC42", "assay": "Rho family GTPase activity assay (G-LISA)", "type": "cell-based, human", "conditions": "Du145 cells, Lenti-141 MOI 10, 48 h", "description": "as §1, §2"}, "[3]": {"tested_on": "RAC1", "assay": "Rho family GTPase activity assay (G-LISA)", "type": "cell-based, human", "conditions": "Du145 cells, Lenti-141 MOI 10, 48 h", "description": "as §1, §2"}, "[4]": {"tested_on": "Du145 cells", "assay": "Boyden chamber Matrigel invasion assay", "type": "cell-based, human", "conditions": "miR-141 oligos 30 nM, 48 h vs NC", "description": "FIGS. 3A-3J show partial suppression of epithelial to mesenchymal transition by miR-141 and CD44 as a direct target of miR-141. FIGS. 3A-3B show qPCR analysis of epithelial to mesenchymal transition markers in bulk (FIG. 3A) or CD44^+ (FIG. 3B) Du145 cells transfected with the miR-141 oligos (30 nM; 48 h). Results were presented as the relative expression levels over the cells transfected with the NC oligos. […] GAPDH was used as control and the relative protein levels after normalizing to GAPDH and NC controls were indicated below each lane. […] Shown below is the actual sequence in the region with the mutated miR-141 binding sequence indicated in grey (below). […] Shown are representative images. […]\nDu145 cells transfected with NC or miR-141 oligos at the two doses and time intervals indicated were used in Western blotting. Indicated below are relative expression levels (normalized to respective GAPDH and compared to NC) of each protein determined by densitometric scanning of the individual bands. […]\nFIG. 6A: Putative binding site of miR-141 in EZH2 3′-UTR. […] Relative protein levels were measured by densitometry and normalized to GAPDH levels (indicated below). […]\nFor Boyden Chamber invasion assays, Biocoat Matrigel Invasion Chamber (BD, Franklin Lakes, N.J.) was employed following the manufacturer's instructions. […] Representative images were taken for each membrane and cells were counted. […]"}, "[5]": {"tested_on": "human EZH2 3'-UTR", "assay": "EZH2 3'-UTR luciferase reporter assay", "type": "cell-based", "conditions": "Du145 cells", "description": "FIG. 6A: Putative binding site of miR-141 in EZH2 3′-UTR. […] FIG. 6C is a qPCR analysis of EZH2 mRNA levels in CD44^+ PCa cells. Bars, mean±SD. *P<0.05; **P<0.01. […] Bars, mean±SD. **P<0.01. […] Western blotting was performed in PC3 and Du145 cells transfected with NC (60 nM) or miR-141 (30 or 60 nM) oligos (72 h). Relative protein levels were measured by densitometry and normalized to GAPDH levels (indicated below). […] Du145 cells plated one day before were treated with 1, 2, and 5 μM of DZNep for 96 h and then cells were harvested for invasion assays. **P<0.01. Inset, WB showing reduced EZH2 proteins by DZNep. […] Du145 cells were transfected with 10 nM scramble siRNA (siCon) or EZH2-targeting siRNAs (siEZH2) or siEZH2 plus anti-miR-141 (30 nM). 48 h later, cells were harvested for invasion assays. Bars, mean±SD. **P<0.01. […]\nThe human CD44 3′-UTR was amplified from Du145 genomic DNA using primers 5′-[…]-3′ (SEQ ID NO: 2) and 5′-[…]-3′ (SEQ ID NO: 3), as previously described (13). […] The luciferase activities were detected using Duo-luciferase reporter assay system (Promega). Human RAC1, CDC42, CDC42EP3, and ARPC5 3′-UTR luciferase reporter constructs were obtained from SwitchGear Genomics (Menlo Park, Calif.) and luciferase activities were measured per the manufacturer's instructions using LightSwitch luciferase assay kit."}}, "data": [{"substance": "miR-141: miR-141 mirVana mimics (Life Technologies); microRNA-141 oligonucleotide may have SEQ ID NO: 1; in some experiments over-expressed by lentiviral vectors (UAACACUGUCUGGUAAAGAUGG; listed as RNA, further chemistry not given here) [miR-141 mirVana mimics (Life Technologies); in some experiments over-expressed by lentiviral vectors]", "values": [{"measurement": "GTPase activity of RhoA", "setting": "[1]", "value": "not"}, {"measurement": "GTPase activity of CDC42", "setting": "[2]", "value": "suppressed"}, {"measurement": "GTPase activity of RAC1", "setting": "[3]", "value": "suppressed"}, {"measurement": "Du145 cell invasion", "setting": "[4]", "value": "inhibited"}, {"measurement": "luciferase activity, WT EZH2 3'-UTR", "setting": "[5]", "value": "suppressed"}, {"measurement": "luciferase activity, mutated EZH2 3'-UTR", "setting": "[5]", "value": "not"}]}]}
